These are literature values, as cited in patent publication US20050058675A1, “Fullerene compositions for ameliorating dermatological conditions” (priority 2003, published 2005).

The data set concerns mice. Conditions: oral, about 0.5 mg/kg/day.

Take C60(>C(COOH)2)3 [C3]: the “increase in mean survival relative to controls” value was ~20%. The mean survival (controls 23.5+/−5.5 months, p=0.033) is 28.7+/−3.3 months.
